# According to patent publication US11786479B2, “Nucleic acid nanocapsules for drug delivery and targeted gene knockdown” (University of Connecticut, priority 2017, dated 2023):
# How the values were obtained:
# [1] = system: GATA-3 mRNA truncate; experiment: Cleavage assay of mRNA truncate, polyacrylamide gel; format: biochemical; settings: 37° C., 4 h
# Protocol: Cleavage Assay. To test the activity of the GATA-3 DNAzyme, both free DNAzyme and 5 μM of ligated NANs were incubated with 0.5 μM GATA-3 mRNA truncate, both in the presence and absence of salts (10 mM MgCl2 and 100 mM NaCl). The different reactions were then run on an 8% denaturing polyacrylamide gel at 350 V for 30 minutes. The gel was scanned using both a 473 nm laser and a 532 nm laser.
# [2] = system: GATA-3 mRNA truncate; experiment: Kinetics cleavage assay (BHQ-mRNA fluorescence); format: biochemical; settings: 10 nM DNAzyme, mRNA truncate 10-200 nM, 37° C.
# Excerpt: Kinetics Cleavage Assay: To determine the kinetics of the cleavage of GATA-3 by both the free and NAN-bound DNAzyme, a fluorescence-based assay was developed. A mRNA truncate corresponding to the cleavable sequence in GATA-3 mRNA was purchased (BioSearch Technologies). The truncate, herein referred to as BHQ-mRNA, was functionalized with a quencher (BHQ1) at the 3′ end and a fluorescein derivative (FAM) at the 5′ end. […] All fluorescence measurements were taken using a Horiba Jobin Yvon fluorometer and, unless otherwise stated, all samples were excited at 470 nm and measurements taken from 485 nm to […]. Samples were heated to their stated temperature using a Cary single cell peltier accessory. A solution of MgCl2 (10 mM), NaCl (100 mM), DNAzyme (10 nM) and H2O was prepared in a total volume 400 μL. The DNAzyme solution was heated to 70° C. for ten minutes prior to mixing. The sample was cooled to and held at 37° C. in the fluorometer and an initial background reading was taken. BHQ mRNA (10 nM, BioSearch Technologies) was spiked into the sample and the fluorescence monitored over 20 minutes. Additional measurements were taken at 25, 50, 75, and 200 nM concentrations of mRNA. This same procedure was repeated for the DNAzyme-NAN (10 nM). […] All non-linear fits for assigning Vmax values were determined using Kaleidagraph 4.5 graphing software.
# [3] = system: MCF-7 cells; experiment: Confocal microscopy uptake of TYE-665 labeled DNAzyme in MCF-7 cells; format: cell-based; settings: 4 hours of incubation
# Protocol: FIG. 15 illustrates cellular uptake and targeted gene knockdown by DNAzyme-NANs in MCF-7 cells. (A) Confocal microscopy of free DNAzymes labeled with TYE-665 dye transfected into MCF-7 cells and monitored for evidence of cellular uptake post 4 hours of incubation. (B) Confocal microscopy of DNz-NANs incubated with cells without transfection agents in which the DNAzyme on the NAN was also labeled with TYE-665 dye. […] All scale bars are 20 μm. (C) GATA-3 mRNA knockdown in MCF-7 cells. 250 nM DNz-NAN is capable of knocking down mRNA by 60% compared to untreated cells (N=3, p=0.0016). […] Error bars represent the standard error of the mean (N=3). (D) MCF-7 cells treated with 250 nM DNz-NANs, monitored for GATA-3 mRNA levels via qRT-PCR at times ranging from 4 to 48 hours of incubation.
# Targeted cleavage is only possible if the DNz-NAN can disassemble and the DNz-surfactants can escape the endosomal compartments of the cell post endocytosis. To study the suitability of the DNz-NAN for cellular uptake and stability of its DNAzyme ligands in the cell, the DNz-NANs were first incubated in 10% fetal bovine serum to mimic exposure to cellular nucleases. […] 1 μM Dye-DNz-NANs were incubated with MCF-7 cells for 4 hr and monitored for evidence of uptake using confocal microscopy (FIGS. 15A and 15B). […]
# [4] = system: mRNA truncate within the Au NP lipoplex; experiment: mRNA cleavage across AuNP-templated lipid bilayer (synthetic lipoplex); format: biochemical; settings: equal concentrations of DNAzyme
# Excerpt: A synthetic lipoplex system was designed to help monitor mRNA cleavage across a lipid bilayer (FIG. 16A). This construct was built using a gold nanoparticle (Au NP) as it can support a simplified lipid bilayer system (FIG. 16B). At the Au NPs surface, both a thiolated DNA molecule and a thiolated PEG-DSPE molecule were assembled (1:2 ratio). The DNA at the surface serves as an anchoring site for the annealing of the 19mer mRNA truncate. For this assay, the same mRNA truncate that was utilized in the kinetics assay was used. Therefore, unless cleaved, the molecule should have limited fluorescence as it has both the BHQ quencher and FAM modifications. This construct was further encapsulated with DOPE, to form a bilayer around the AuNPs, a procedure previously disclosed (Shen et al. Nanoscale, 2016, 8, 14821-14835.) These particles were then subjected to either the free DNAzyme or DNAzyme-surfactants, and the extent of mRNA cleavage evaluated as a function of increases observed in overall fluorescence. To mimic more closely the DNz-surfactant that would results from the DNz-NANs post degradation by endosomal esterases, a modified surfactant which presented only two alkynes was synthesized, attached the DNA anchor to it, and ligated DNAzymes to the anchor to form a DNAzyme-surfactant conjugate. […] All conditions had equal concentrations of DNAzyme.
# [5] = system: HeLa cells; experiment: MTS assay of PMA-treated HeLa cells with camptothecin-loaded MMP9-NANs; format: cell-based; settings: HeLa cells treated with PMA for 21 h
# Protocol: In order to test the correlation between enzyme expression level within a live cell and the ability of the pep-NANs to be degraded, an additional assay was run in which HeLa cells were treated with phorbol 12-myristate 13-acetate (PMA), a known inducer of MMP9 expression in HeLa cells. Cells were incubated in serum-free media and treated with MMP9-NANs carrying camptothecin, a known apoptotic cancer drug. The toxicity of the drug loaded MMP9-NANs was evaluated using an MTS assay post 21 h PMA treatment, allowing enough time for MMP9 expression.
Compound,cleavage of truncated GATA-3 mRNA (gel) [1],Km [2] [µM],cellular uptake (TYE-665 signal) [3],access to and cleavage of mRNA truncate across lipid bilayer (fluorescence) [4],no toxicity up to [5]
"DNAzyme: GATA-3 targeting DNAzyme (hgd40), SEQ ID NO:2 (DNA GTGGATGGAGGCTAGCTACAACGAGTCTTGGAG; GATA-3 DNAzyme; misc_structure (1)..(1) monophosphorylated site)",complete cleavage,0.059,TYE signal could be observed in the perinuclear region of the cells,limited change in signal,–
"CCCCCCCCCCCCCC(=O)O[C@@H]1[C@@H](C)[C@@]2(O)[C@@H](C=C(CO)C[C@]3(O)C(=O)C(C)=C[C@@H]23)[C@@H]2C(C)(C)[C@]12OC(C)=O [PMA, phorbol 12-myristate 13-acetate]",–,–,–,–,up to 150 ng/mL
